# Test results as given in US8466188B2, “Use of spiro-oxindole compounds as therapeutic agents” (Xenon Pharmaceuticals Inc., priority 2006, dated 2013).
row,melting point [°C],Structure (SMILES)
1,138 to 142,"O=C1N(Cc2nc3cc(F)ccc3[nH]2)c2ccccc2C12COc1cc3c(cc12)OCO3 (centres unmarked) [Example 53, 1′-[(5-fluoro-1H-benzimidazol-2-yl)methyl]spiro[furo[2,3-f][1,3]benzodioxole-7,3′-indol]-2′(1′H)-one]"
2,110 to 112,"O=C1N(Cc2ccco2)c2ccccc2C12COc1cc3c(cc12)OCO3 (centres unmarked) [Example 10.52, 1′-(2-furylmethyl)spiro[furo[2,3-f][1,3]benzodioxole-7,3′-indol]-2′(1′H)-one]"
3,95 to 97,"O=C1N(CC2CCN(c3ccccn3)CC2)c2ccccc2C12COc1cc3c(cc12)OCO3 (centres unmarked) [Example 10.86, 1′-[(1-pyridin-2-ylpiperidin-4-yl)methyl]spiro[furo[2,3-f][1,3]benzodioxole-7,3′-indol]-2′(1′H)-one]"
4,145 to 146,"O=C1N(Cc2ccc(Cl)s2)c2ccccc2C12COc1cc3c(cc12)OCO3 (centres unmarked) [Example 10.67, 1′-[(5-chloro-2-thienyl)methyl]spiro[furo[2,3-f][1,3]benzodioxole-7,3′-indol]-2′(1′H)-one]"
5,185 to 200,Cl.O=C1N(Cc2ccc(N3CCOCC3)nc2)c2ccccc2C12COc1cc3c(cc12)OCO3 (centres unmarked)
6,> 200,"O=C1N(Cc2ccccn2)c2cccc(Br)c2C12COc1cc3c(cc12)CCO3 (centres unmarked) [Example 1.25, 4′-bromo-1′-(pyridin-2-ylmethyl)-5,6-dihydrospiro[benzo[1,2-b:5,4-b′]difuran-3,3′-indol]-2′(1′H)-one]"
7,245 to 246,"O=C(CN1C(=O)C2(COc3cc4c(cc32)CCO4)c2c(Br)cccc21)Nc1ccccc1F (centres unmarked) [Example 3.12, 2-(4′-bromo-2′-oxo-5,6-dihydrospiro[benzo[1,2-b:5,4-b′]difuran-3,3′-indol]-1′(2′H)-yl)-N-(2-fluorophenyl)acetamide]"
8,70 to 75,"O=C(CN1C(=O)C2(COc3cc(Cl)ccc32)c2ccccc21)Nc1ccccc1F (centres unmarked) [Example 3.8, 2-(6-chloro-2′-oxospiro[1-benzofuran-3,3′-indol]-1′(2′H)-yl)-N-(2-fluorophenyl)acetamide]"
9,144 to 146,"O=C1N(CCCCl)c2ccccc2C12COc1cc3c(cc12)OCO3 (centres unmarked) [Example 10.57, 1′-(3-chloropropyl)spiro[furo[2,3-f][1,3]benzodioxole-7,3′-indol]-2′(1′H)-one]"
10,143 to 145,"O=C1N(Cc2ccc(C(F)(F)F)o2)c2ccccc2C12COc1ccc(Br)cc12 (centres unmarked) [Example 1.33, 5-bromo-1′-{[5-(trifluoromethyl)-2-furyl]methyl}spiro[1-benzofuran-3,3′-indol]-2′(1′H)-one]"
11,> 240,Cl.O=C1N(CCN2CCCCC2)c2ccccc2C12COc1cc3c(cc12)OCO3 (centres unmarked)
12,124 to 126,CC1(C)COc2cc3c(cc21)C1(CO3)C(=O)N(Cc2cccnc2)c2ccccc21.Cl (centres unmarked)
13,142 to 144,"O=C1N(Cc2ccc(Cl)s2)c2ccc(F)cc2C12COc1cc3c(cc12)OCO3 (centres unmarked) [Example 10.61, 1′-[(5-chloro-2-thienyl)methyl]-5′-fluorospiro[furo[2,3-f][1,3]benzodioxole-7,3′-indol]-2′(1′H)-one]"
14,148 to 150,"O=C1N(Cc2ccc(Cl)o2)c2ccccc2C12COc1cc3c(cc12)OCO3 (centres unmarked) [Example 10.62, 1′-[(5-chloro-2-furyl)methyl]spiro[furo[2,3-f][1,3]benzodioxole-7,3′-indol]-2′(1′H)-one]"
15,158 to 160,Cl.O=C1N(CCC2CCN(C3CCC3)CC2)c2ccccc2C12COc1cc3c(cc12)OCO3 (centres unmarked)
16,> 230,"O=C1Nc2cccc(-c3cccc4c3oc3ccccc34)c2C12COc1cc3c(cc12)OCO3 (centres unmarked) [Example 4.5, 4′-dibenzo[b,d]furan-4-ylspiro[furo[2,3-f][1,3]benzodioxole-7,3′-indol]-2′(1′H)-one]"
17,150 to 152,Cl.O=C1N(Cc2ccccn2)c2ccccc2C12COc1cc(OC(F)(F)F)ccc12 (centres unmarked)
18,142 to 144,"CN1C(=O)C2(COc3cc4c(cc32)OCO4)c2ccccc21 (centres unmarked) [Example 10.39, 1′-methylspiro[furo[2,3-f][1,3]benzodioxole-7,3′-indol]-2′(1′H)-one]"
19,159 to 161,"Cc1oncc1CN1C(=O)C2(COc3cc4c(cc32)OCO4)c2ccccc21 (centres unmarked) [Example 10.34, 1′-[(5-methylisoxazol-4-yl)methyl]spiro[furo[2,3-f][1,3]benzodioxole-7,3′indol]-2′(1′H)-one]"
20,225 to 227,"O=C1N(Cc2sc(C(F)(F)F)cc2O)c2ccccc2C12COc1cc3c(cc12)OCO3 (centres unmarked) [Example 10.68, 1′-{[3-hydroxy-5-(trifluoromethyl)-2-thienyl]methyl}spiro[furo[2,3-f][1,3]benzodioxole-7,3′-indol]-2′(1′H)-one]"
21,133 to 134,"CCOC(=O)CN1C(=O)C2(COc3cc(F)c(F)cc32)c2c(Br)cccc21 (centres unmarked) [Example 1.47, ethyl (4′-bromo-5,6-difluoro-2′-oxospiro[1-benzofuran-3,3′-indol]-1′(2′H)-yl)acetate]"
22,95 to 100,"CC1(C)COc2cc3c(cc21)C1(CO3)C(=O)Nc2ccccc21 (centres unmarked) [Example 1.21, 5,5-dimethyl-5,6-dihydrospiro[benzo[1,2-b:5,4-b′]difuran-3,3′-indol]-2′(1′H)-one]"
23,167 to 169,"N#Cc1ccc(CN2C(=O)C3(COc4cc5c(cc43)OCO5)c3ccccc32)o1 (centres unmarked) [Example 10.80, 5-[(2′-oxospiro[furo[2,3-f][1,3]benzodioxole-7,3′-indol]-1′(2′H)-yl)methyl]-2-furonitrile]"
24,182 to 184,"O=C1N(Cc2ccc(C(F)(F)F)o2)c2cccc(Br)c2C12COc1cc3c(cc12)CCO3 (centres unmarked) [Example 10.48, 4′-bromo-1′-{[5-(trifluoromethyl)-2-furyl]methyl}-5,6-dihydrospiro[benzo[1,2-b:5,4-b′]difuran-3,3′-indol]-2′(1′H)-one]"
25,145 to 147,CC1(C)COc2cc3c(cc21)C1(CO3)C(=O)N(Cc2ccccn2)c2ccccc21.Cl (centres unmarked)
26,78 to 80,"O=C1N(Cc2ccc(C(F)(F)F)o2)c2ccccc2C12COc1cc(OC(F)(F)F)ccc12 (centres unmarked) [Example 10.90, 6-(trifluoromethoxy)-1′-{[5-(trifluoromethyl)-2-furyl]methyl}spiro[1-benzofuran-3,3′-indol]-2′(1′H)-one]"
27,205 to 207,"O=C1N(Cc2ccc(-c3cccc(Cl)c3)o2)c2ccccc2C12COc1cc3c(cc12)OCO3 (centres unmarked) [Example 10.56, 1′-{[5-(3-chlorophenyl)-2-furyl]methyl}spiro[furo[2,3-f][1,3]benzodioxole-7,3′-indol]-2′(1′H)-one]"
28,96 to 98,"CC(C)(C)OC(=O)N1CCC(CN2C(=O)C3(COc4cc5c(cc43)CCO5)c3ccccc32)CC1 (centres unmarked) [Example 10.43, tert-butyl 4-[(2′-oxo-5,6-dihydrospiro[benzo[1,2-b:5,4-b′]difuran-3,3′-indol]-1′(2′H)-yl)methyl]piperidine 1-carboxylate]"
29,96 to 98,"Cc1ccc2c(c1)C1(COc3cc4c(cc31)OCO4)C(=O)N2Cc1ccc(C(F)(F)F)o1 (centres unmarked) [Example 10.76, 5′-methyl-1′-{[5-(trifluoromethyl)-2-furyl]methyl}spiro[furo[2,3-f][1,3]benzodioxole-7,3′-indol]-2′(1′H)-one]"
